Assay results published in PMC8569553, “An improved assay to measure the phospholipid transfer activity of microsomal triglyceride transport protein” (Journal of Lipid Research, 2021).
Positions count from the first letter of the chain named.

Experiments:
[1] = target: T1, human microsomal triglyceride transfer protein (hMTP) N649S mutant (Homo sapiens, UniProt P55157, N649S); experiment: NBD-lipid TAG and PL transfer assay in Cos-7 lysate, […] lomitapide; format: cell-based
T1 construct: gene MTTP; expressed in Cos-7 cells, lysate
T1 sequence (P55157 19-894 N649S): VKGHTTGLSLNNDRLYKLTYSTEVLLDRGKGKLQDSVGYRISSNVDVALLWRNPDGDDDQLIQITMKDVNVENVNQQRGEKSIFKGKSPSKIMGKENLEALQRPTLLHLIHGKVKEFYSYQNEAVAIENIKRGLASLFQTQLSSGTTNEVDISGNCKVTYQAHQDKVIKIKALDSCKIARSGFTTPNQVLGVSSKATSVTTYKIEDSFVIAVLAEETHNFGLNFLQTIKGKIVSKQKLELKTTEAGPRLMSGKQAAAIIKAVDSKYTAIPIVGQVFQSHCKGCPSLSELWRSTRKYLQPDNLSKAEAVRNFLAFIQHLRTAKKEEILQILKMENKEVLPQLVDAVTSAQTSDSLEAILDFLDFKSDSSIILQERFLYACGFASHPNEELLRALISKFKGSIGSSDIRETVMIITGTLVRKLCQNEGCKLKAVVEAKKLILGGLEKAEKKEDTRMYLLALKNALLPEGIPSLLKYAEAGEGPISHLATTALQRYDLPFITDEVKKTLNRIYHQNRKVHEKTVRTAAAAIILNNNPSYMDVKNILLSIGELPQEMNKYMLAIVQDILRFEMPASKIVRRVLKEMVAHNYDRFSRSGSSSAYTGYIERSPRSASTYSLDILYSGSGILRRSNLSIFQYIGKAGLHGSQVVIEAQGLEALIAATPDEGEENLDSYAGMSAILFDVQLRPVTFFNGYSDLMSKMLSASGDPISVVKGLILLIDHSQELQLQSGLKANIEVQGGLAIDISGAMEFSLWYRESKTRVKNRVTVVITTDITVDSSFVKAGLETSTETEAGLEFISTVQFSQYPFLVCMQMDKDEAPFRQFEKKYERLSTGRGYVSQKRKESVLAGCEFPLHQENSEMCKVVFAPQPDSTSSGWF

[2] = target: T2, mouse microsomal triglyceride transfer protein (mMTP) (Mus musculus, UniProt O08601); experiment: NBD-lipid TAG and PL transfer assay in liver homogenate with Mttp knockout control, […] lomitapide; format: cell-based
T2 construct: gene Mttp; endogenous, liver homogenate
T2 sequence (O08601 22-894): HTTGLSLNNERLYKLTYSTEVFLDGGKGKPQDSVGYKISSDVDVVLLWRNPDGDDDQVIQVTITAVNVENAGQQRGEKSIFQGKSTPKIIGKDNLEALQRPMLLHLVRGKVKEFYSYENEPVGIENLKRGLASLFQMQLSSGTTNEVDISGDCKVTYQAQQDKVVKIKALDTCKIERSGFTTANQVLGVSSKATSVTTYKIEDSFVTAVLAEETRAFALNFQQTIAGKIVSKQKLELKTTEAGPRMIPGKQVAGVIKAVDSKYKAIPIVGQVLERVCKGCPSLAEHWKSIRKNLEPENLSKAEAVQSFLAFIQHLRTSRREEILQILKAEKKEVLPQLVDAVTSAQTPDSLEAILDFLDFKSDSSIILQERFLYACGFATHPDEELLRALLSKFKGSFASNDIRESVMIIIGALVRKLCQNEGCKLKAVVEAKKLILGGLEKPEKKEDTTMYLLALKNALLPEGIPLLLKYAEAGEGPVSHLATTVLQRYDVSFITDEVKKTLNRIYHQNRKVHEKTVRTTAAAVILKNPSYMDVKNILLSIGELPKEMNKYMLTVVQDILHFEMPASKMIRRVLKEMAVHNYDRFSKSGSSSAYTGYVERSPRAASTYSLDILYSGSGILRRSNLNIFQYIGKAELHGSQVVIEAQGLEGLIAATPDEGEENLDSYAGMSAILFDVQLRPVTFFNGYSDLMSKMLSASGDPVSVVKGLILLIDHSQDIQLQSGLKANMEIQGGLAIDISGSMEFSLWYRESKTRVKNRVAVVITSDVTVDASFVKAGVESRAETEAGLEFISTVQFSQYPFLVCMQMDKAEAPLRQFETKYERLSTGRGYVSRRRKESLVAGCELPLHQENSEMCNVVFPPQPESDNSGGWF
T2 sequence (P09103 20-509 partner): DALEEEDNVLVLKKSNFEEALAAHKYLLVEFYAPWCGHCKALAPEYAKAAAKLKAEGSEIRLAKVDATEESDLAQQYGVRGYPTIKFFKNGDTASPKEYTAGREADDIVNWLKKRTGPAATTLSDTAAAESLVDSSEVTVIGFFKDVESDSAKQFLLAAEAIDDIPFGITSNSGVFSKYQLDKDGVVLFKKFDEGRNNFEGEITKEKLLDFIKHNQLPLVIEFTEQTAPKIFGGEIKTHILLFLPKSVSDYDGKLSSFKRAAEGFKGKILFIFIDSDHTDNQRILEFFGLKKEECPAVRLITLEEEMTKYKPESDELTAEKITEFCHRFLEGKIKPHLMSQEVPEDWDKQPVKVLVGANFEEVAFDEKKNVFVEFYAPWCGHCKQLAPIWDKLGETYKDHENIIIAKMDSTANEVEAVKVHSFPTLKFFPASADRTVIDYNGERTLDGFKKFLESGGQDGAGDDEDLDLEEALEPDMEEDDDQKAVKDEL

Drosophila MTP (dMTP) = target: T3, Drosophila MTP (dMTP) (Drosophila melanogaster, UniProt Q9VIH3); experiment: NBD-PE PL transfer assay in Cos-7 lysate, […] lomitapide (partial inhibition); format: cell-based
T3 construct: expressed in Cos-7 cells, lysate
T3 sequence (Q9VIH3 28-886): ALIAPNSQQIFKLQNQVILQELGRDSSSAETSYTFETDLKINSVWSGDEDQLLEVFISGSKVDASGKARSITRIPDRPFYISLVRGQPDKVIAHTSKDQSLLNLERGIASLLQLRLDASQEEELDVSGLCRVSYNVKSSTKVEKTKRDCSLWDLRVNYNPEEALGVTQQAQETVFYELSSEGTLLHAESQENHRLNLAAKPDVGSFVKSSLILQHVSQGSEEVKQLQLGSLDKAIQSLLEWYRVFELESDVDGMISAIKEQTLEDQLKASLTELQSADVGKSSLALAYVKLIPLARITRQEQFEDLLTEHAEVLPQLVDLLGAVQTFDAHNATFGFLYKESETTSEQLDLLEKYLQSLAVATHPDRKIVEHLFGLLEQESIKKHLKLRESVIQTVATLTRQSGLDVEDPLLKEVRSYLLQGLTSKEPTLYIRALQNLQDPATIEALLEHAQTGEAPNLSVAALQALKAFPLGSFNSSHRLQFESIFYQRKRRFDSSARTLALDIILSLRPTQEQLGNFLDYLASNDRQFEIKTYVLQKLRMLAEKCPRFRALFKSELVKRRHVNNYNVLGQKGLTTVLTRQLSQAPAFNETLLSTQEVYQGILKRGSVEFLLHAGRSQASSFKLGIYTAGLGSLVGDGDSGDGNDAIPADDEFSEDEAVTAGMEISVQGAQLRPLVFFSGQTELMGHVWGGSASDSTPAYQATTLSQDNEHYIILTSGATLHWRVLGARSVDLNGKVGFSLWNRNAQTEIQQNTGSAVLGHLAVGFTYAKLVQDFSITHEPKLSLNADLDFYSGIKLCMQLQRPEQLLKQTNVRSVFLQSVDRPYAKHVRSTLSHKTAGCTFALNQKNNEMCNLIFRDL

[3] = target: T4, human microsomal triglyceride transfer protein (hMTP) (Homo sapiens, UniProt P55157); experiment: fluorescent NBD-lipid vesicle transfer assay (PL and TAG) with purified MTP; format: biochemical
T4 construct: gene MTTP; hMTP-FLAG, purified from Cos-7 cells; with protein disulphide isomerase (PDI, β subunit)
T4 sequence (P55157 19-894): T1 sequence (P55157 19-894 N649S) with S631N

O=C(NC1CCN(CCCCC2(C(=O)NCC(F)(F)F)c3ccccc3-c3ccccc32)CC1)c1ccccc1-c1ccc(C(F)(F)F)cc1 [lomitapide]
NBD-lipid TAG and PL transfer assay in Cos-7 lysate, 1 μM lomitapide [1]: resulted in significantly lower TAG transfer activity, which was completely inhibited by lomitapide
NBD-lipid TAG and PL transfer assay in liver homogenate with Mttp knockout contr [2]: substantial TAG transfer activity in Mttp^fl/fl liver tissue, and this activity was inhibited by lomitapide
NBD-PE PL transfer assay in Cos-7 lysate, 1 μM lomitapide (partial inhibition) (Drosophila MTP (dMTP)): This activity was partially inhibited by lomitapide.
IC50 [3]: 0.01 µM
